In data set [1] the target is αvβ3 integrin (Homo sapiens, UniProt P05106+P06756). Type of data set: binding. The following applies: ratio of Ki values, FP competition.
A further data set deals with aminopeptidase. Kind of data set: Aminopeptidase challenge of cyclised and uncyclised lanthipeptides. The following applies: compared to the uncyclised compounds; Fig. S7.
Data set [2] deals with αvβ3 integrin (UniProt P06756 31-1048; P05106 27-788). Kind of data set: fluorescence polarisation; competition of the lanthipeptides against fluorescently labelled c(RGDyK) for αvβ3 integrin; Ki from competition curves. The following applies: both partners purified. (In general: Fluorescence polarisation rises when a labelled molecule tumbles more slowly, as on binding a larger partner.)

By Ki is commonly meant a dissociation constant, usually derived from enzyme kinetics or from competition with a known ligand. A low value points to higher affinity.

αvβ3 integrin (UniProt P06756 31-1048; P05106 27-788), sequence (P06756 31-1048, chain 1 of 2): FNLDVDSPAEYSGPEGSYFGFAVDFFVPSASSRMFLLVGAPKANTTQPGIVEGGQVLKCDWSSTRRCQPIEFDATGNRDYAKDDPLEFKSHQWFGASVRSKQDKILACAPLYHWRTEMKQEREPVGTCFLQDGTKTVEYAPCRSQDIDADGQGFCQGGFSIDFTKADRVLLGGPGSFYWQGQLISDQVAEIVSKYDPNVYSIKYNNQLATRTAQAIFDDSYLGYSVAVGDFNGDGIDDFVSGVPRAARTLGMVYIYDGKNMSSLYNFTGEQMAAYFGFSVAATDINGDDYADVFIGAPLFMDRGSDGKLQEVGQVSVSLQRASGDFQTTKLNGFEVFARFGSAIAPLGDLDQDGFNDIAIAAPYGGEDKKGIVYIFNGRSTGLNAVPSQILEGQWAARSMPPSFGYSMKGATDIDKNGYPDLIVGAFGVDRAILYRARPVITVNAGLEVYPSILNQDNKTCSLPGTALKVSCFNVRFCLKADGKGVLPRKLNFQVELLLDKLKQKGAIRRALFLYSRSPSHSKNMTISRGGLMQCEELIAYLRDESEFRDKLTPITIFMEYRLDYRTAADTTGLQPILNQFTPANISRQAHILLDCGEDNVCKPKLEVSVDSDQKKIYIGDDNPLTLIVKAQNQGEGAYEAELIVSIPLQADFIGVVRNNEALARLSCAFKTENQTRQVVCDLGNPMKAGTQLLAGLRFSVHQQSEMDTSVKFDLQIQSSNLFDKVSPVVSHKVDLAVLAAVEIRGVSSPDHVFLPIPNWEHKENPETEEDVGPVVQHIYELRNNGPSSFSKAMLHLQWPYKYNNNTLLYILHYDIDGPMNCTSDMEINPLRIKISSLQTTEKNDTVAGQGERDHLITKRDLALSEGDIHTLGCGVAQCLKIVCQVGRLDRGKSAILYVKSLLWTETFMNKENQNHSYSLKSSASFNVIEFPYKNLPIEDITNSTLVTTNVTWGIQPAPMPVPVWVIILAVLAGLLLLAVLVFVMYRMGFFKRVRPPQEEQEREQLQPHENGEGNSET
αvβ3 integrin (UniProt P06756 31-1048; P05106 27-788), sequence (P05106 27-788, chain 2 of 2): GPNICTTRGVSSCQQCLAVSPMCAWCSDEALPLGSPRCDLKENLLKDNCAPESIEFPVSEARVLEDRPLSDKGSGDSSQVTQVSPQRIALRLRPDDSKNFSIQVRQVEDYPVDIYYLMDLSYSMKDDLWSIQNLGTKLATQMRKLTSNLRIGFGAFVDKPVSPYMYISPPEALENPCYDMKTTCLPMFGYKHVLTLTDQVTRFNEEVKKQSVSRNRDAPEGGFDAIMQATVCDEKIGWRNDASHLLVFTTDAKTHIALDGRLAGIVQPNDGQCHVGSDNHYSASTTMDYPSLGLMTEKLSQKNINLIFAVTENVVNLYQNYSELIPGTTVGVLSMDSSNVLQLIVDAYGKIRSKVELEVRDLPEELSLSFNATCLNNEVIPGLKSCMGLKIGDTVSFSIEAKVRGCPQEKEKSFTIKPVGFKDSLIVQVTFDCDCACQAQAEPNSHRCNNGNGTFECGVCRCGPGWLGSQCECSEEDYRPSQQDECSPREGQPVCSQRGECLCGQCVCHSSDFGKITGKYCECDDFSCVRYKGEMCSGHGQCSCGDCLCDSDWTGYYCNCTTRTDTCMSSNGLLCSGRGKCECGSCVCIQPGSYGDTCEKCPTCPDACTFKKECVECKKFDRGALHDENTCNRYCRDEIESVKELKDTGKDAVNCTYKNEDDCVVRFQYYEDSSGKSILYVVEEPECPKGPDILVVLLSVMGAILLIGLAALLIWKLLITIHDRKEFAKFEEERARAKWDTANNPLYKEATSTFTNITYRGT
αvβ3 integrin (Homo sapiens, UniProt P05106+P06756), sequence (P06756 31-992 limits assumed): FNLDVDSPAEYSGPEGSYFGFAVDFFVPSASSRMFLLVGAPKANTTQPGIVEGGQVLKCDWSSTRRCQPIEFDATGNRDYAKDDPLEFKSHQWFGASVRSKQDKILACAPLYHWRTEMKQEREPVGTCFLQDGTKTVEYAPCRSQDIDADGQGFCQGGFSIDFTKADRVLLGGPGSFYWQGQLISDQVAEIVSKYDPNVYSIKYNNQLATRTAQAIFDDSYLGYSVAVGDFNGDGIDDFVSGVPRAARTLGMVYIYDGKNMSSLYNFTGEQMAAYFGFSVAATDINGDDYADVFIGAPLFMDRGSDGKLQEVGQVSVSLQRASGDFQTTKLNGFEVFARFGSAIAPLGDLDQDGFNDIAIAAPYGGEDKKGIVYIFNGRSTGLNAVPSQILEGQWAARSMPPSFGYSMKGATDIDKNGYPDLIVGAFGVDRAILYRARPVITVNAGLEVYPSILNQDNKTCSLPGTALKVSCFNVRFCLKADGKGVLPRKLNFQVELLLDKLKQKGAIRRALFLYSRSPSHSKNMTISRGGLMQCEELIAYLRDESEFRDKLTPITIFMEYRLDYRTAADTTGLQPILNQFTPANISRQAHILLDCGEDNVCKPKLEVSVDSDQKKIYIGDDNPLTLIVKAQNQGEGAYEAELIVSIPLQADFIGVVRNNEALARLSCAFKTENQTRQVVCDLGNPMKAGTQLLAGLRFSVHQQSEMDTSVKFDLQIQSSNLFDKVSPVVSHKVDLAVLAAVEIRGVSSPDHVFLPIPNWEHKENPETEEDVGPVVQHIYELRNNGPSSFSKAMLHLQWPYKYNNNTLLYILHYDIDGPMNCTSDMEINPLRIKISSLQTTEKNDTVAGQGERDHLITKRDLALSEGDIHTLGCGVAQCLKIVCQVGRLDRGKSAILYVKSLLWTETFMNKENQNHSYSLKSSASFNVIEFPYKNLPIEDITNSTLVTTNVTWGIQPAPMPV
αvβ3 integrin (Homo sapiens, UniProt P05106+P06756), sequence (P05106 27-718 limits assumed): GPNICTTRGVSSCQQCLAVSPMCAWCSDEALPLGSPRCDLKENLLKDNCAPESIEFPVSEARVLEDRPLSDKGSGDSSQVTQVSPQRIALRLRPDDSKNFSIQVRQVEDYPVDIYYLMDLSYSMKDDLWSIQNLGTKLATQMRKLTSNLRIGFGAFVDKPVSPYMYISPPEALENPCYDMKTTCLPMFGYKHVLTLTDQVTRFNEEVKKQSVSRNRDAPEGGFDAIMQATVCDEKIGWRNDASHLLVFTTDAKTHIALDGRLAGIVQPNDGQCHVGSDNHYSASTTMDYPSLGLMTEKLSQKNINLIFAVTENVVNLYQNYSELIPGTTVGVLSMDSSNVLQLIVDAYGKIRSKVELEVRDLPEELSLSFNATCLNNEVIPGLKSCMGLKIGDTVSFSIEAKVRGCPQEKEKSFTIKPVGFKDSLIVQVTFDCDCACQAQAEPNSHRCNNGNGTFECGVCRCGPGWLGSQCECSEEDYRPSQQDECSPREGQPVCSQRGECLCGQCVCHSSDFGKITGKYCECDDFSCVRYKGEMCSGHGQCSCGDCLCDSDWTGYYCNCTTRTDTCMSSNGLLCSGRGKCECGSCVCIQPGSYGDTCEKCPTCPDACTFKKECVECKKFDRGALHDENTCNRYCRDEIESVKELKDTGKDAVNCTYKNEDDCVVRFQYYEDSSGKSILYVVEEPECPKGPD

Regarding `CSCC[C@@H]1NC(=O)[C@H]2CSC[C@H](NC(=O)[C@H](C)NC(=O)[C@H](C)NC(=O)[C@H](CC(N)=O)NC(=O)[C@@H]3CSC[C@@H](NC(=O)[C@@H]4CCCN4C(=O)[C@@H]4CCCN4C1=O)C(=O)N[C@@H](Cc1ccc(O)cc1)C(=O)N[C@@H](CCCNC(=N)N)C(=O)NCC(=O)N[C@@H](CC(=O)O)C(=O)N[C@@H](CCC(=O)O)C(=O)N3)C(=O)N[C@@H](Cc1c[nH]cn1)C(=O)N[C@@H](CC(N)=O)C(=O)N[C@@H](Cc1c[nH]cn1)C(=O)N[C@@H](C)C(=O)N1CCC[C@H]1C(=O)N2` [c15RGD], the “fold higher affinity for αvβ3 integrin, N-to-C cyclised vs noncyclised” value on αvβ3 integrin [1] is 4 fold. For the same molecule, the resistance to aminopeptidase result with aminopeptidase is “resistant to aminopeptidase”.
As to `CSCC[C@@H]1NC(=O)[C@H]2CSC[C@H](NC(=O)[C@H](C)NC(=O)[C@H](C)NC(=O)[C@H](CC(N)=O)NC(=O)[C@@H]3CSC[C@@H](NC(=O)[C@@H]4CCCN4C(=O)[C@@H]4CCCN4C1=O)C(=O)N[C@@H](Cc1ccc(O)cc1)C(=O)N[C@@H](Cc1c[nH]c4ccccc14)C(=O)N[C@@H](CCCNC(=N)N)C(=O)NCC(=O)N[C@@H](CC(=O)O)C(=O)N3)C(=O)N[C@@H](Cc1c[nH]cn1)C(=O)N[C@@H](CC(N)=O)C(=O)N[C@@H](Cc1c[nH]cn1)C(=O)N[C@@H](C)C(=O)N1CCC[C@H]1C(=O)N2` [c16RGD], the resistance to aminopeptidase result in the data set with aminopeptidase is “resistant to aminopeptidase”.

B1: N-to-C cyclised prochlorosin 16RGD (OaAEP1-cyclised lanthipeptide) (peptide)
chain: cyclo(AACHNHAPSMPPSYWRGDCN)
modifications: thioether (positions not given here); also: lanthionine linkages installed by ProcM, places not given here, thioether: lanthionine
As for B1, in the data set with αvβ3 integrin [2], the Ki is 0.28 ± 0.03 µM.

B2: N-to-C cyclised prochlorosin 15RGD (OaAEP1-cyclised lanthipeptide) (peptide)
chain: cyclo(AACHNHAPSMPPSYRGDECN)
modifications: thioether (positions not given here); also: lanthionine linkages installed by ProcM, places not given here, thioether: lanthionine
In the data set with αvβ3 integrin [2], B2 registered a Ki of 7.7 ± 1.3 µM.

These data come from PMC11189026 (Chemical communications (Cambridge, England), 2024).
